Tests used:
[1] = test system: red cells of subjects suffering from drepanocytosis; test: Inhibition of sickling of human red blood corpuscules of subjects suffering from drepanocytosis; type: cell-based; settings: pH 7.40, one hour at 37° C.
Protocol: Inhibition of the sickling of human red blood corpuscules was assessed by washing and incubating, in a saline buffer (pH: 7.40; 0.15M) for one hour at 37° C., the red cells of subjects suffering from drepanocytosis. This operation was carried out in a water-bath under stirring and in the presence of a compound of the invention used at different concentrations. The molar ratios between the compound of the invention and the haemoglobin were initially tested at intervals ranging from 0.5 to 20, the mM concentration in haemoglobin being 0.5 in each case and the ratio being modified according to the results obtained.
At the end of incubation, the excess of the product being tested was removed by washing and the cellular suspension adjusted so as to form a haematocrit of 5% was transferred to an Erlenmeyer flask and incubated at 37° C. under a current comprising a humidified mixture of nitrogen and oxygen the oxygen concentration being regulated by a gas-mixing pump. The effluent gas was then transferred to another tube containing formaldehyde and, at the end of incubation, the cellular suspension was transferred to the formaldehyde by merely turning the flask upside down.
The proportion of deformed cells and those having the characteristics of drepanocytes (having two filiform extensions) was assessed with the aid of a microscope having a NORMARSKY interferential optical system. Inhibition of sickling was calculated according to the following formula: [formula]
The following results were obtained with representative compounds of the present invention in comparison with cystamine.

sickling = settings: literature: Inserm Symposium 1979; in words; cited from earlier work

| Compound | % inhibition of sickling of the red blood corpuscles ([1]; 0.5 mmolar) [%] | % inhibition of sickling of the red blood corpuscles ([1]; 1 mmolar) [%] | % inhibition of sickling of the red blood corpuscles ([1]; 5 mmolar) [%] | inhibiting sickling (sickling) |
| --- | --- | --- | --- | --- |
| Cc1ccc(S(=O)(=O)Sc2ncc[nH]2)cc1 [1H-imidazol-2-yl p-toluenethiosulfonate] | 50 | 100 |  |  |
| NCCSSCCN [Cystamine, cystamine, reference compound] |  |  | 33 | particularly active |
| Cc1ccc(S(=O)(=O)Sc2nnc(N)s2)cc1 [5-amino-1,3,4-thiadiazol-2-yl p-toluenethiosulfonate] |  | 33 |  |  |

From patent publication US4696937A, “Thiosulfonate derivatives for inhibiting malformation or destruction of red blood corpuscules” (Sanofi, priority 1984, dated 1987)
